Consider three molecules from US20080294071A1, “Assay Method” (priority 2004, published 2008).

The conditions of data set [1]: clinical literature; cited from earlier work.
The test system of data set [2] is rats. The data set is described as follows: Locomotor activity test. The data set is classed as in vivo, Male Sprague Dawley rats. The protocol:
(§1) Male Sprague Dawley rats 200-300 g (Charles River, Margate, U.K.) were housed in group of five per cage under a 12 h light/dark cycle with food and water available ad libitum. Each experiment was carried out with groups of at minimum 7 rats. All procedures in this study were performed in accordance with the Home Office Animals (Scientific Procedures) Act 1986 and accordingly with our Project License, after the experiment, animals were sacrificed by schedule 1 method.
The spontaneous locomotor activity of rats in a novel environment was monitored for 30 min in a 35×20 cm Perspex chamber. The cage was equipped with two series photocells located at 2 and 15 cm above the floor (San Diego Instruments, CA, USA). To measure drug-induced decrease locomotion such as morphine and gabapentin, at a pre-defined time post drug administration, each animal was placed in the centre of the cage. To measure drug-induced increase in locomotion such as phencyclidine (PCP) rats were placed in the cage at least 30 min before recording. total activity (ambulation and rearing) was monitored every 5 min for 30 min.
(§2) In the locomotor activity task, total counts are the sum of horizontal and vertical movements (photo beam breaks) in 30 minutes recording. For PCP vertical and horizontal activity are analysed separately. Data were expressed as the arithmetic mean ±SEM and analysed by ANOVA. In the beam walking test, the time to cross the beam (seconds) and the number of foot slips were expressed as mean ±SEM and analysed by ANOVA and Mann Whitney U test, respectively.

The subject of data set [3] is rats. Briefly: Beam walking test. The data set is classed as in vivo, Male Sprague Dawley rats. As to the method:
as §1
The Beam walking apparatus consists of a 1.5 m long beam with a 2.5×2.5 cm square cross section, elevated 75 cm above the floor. The test was performed in dim light conditions (18 lux). A light source (520 lux) was placed at the start-end of the beam while a dark box at the other side (Feeney D M et al, Amphetamine, Haloperidol, and experience interact to affect rate of recovery after motor cortex injury, Science 217, 1982). Rats were habituated to the dim light condition for at least 1 hour before the beginning of the training sessions. Rats were trained to cross the beam over 2 days, twice a day. The first day, rodents were trained to cross starting from last quarter and half of the beam until the dark box, in the first and second session, respectively. The following day rodents were trained to cross the entire length of the beam twice. At least 2 hours were left between each daily session. On the day of test a baseline recording was registered before compound administration and rats were selected based on their ability to cross the beam with no major impairments. Therefore, only rodents that crossed the beam in less than 10 seconds and showing two or less foot slips were used for the assessment of drug-induced motor impairments. Then rats were tested for their ability to cross the beam at various time points after drug injection. The time taken to cross and the number of foot slips produced while a rat was crossing the beam were counted. […] No movement or freezing behaviours were also scored with the maximum value.
as §2

The mark [4] stands for this setting: 1 and 10 mg/kg ip, 1 hr post injection.

On to `NCC1(CC(=O)O)CCCCC1` [Gabapentin], for which the “adverse events in humans” value in data set [1] was “dizziness and somnolence”. Besides, the “decrease in locomotor activity (of vehicle-treated group)” value in the data set on rats [2] (100 mg/kg PO (highest dose), one hour post dose) is 27%. For the same molecule, the “locomotor activity, effect” value with rats [2] (100 mg/kg in rats) was “small (albeit statistically significant) decrease”. Further, the “locomotor activity, effect across doses” value with rats [2] (10, 30 and 100 mg/kg PO, one hour post dose) is “decreased significantly the locomotor activity of rats at the highest dose only”. The “total counts in 30 min” value in the data set on rats [2] (gabapentin highest dose 100 mg/kg PO, one hour post dose) was 262±25 counts. For the same molecule, in the data set with rats [3] (100 mg/kg in rats), the “number of foot slips, effect” value was “robust increase”. The “time to cross the beam, effect” value in the data set with rats [3] (30, 100 and 300 mg/kg PO, up to 6 hrs, p<0.05) was “only at 3 and 4 hour post administration the highest dose significantly increase the time to cross”. For the same molecule, in the data set on rats [3] (PO), the “duration of effect on foot slips (lasting till)” value is 4 h and the “time of peak effect on foot slips” value was 2 h. The “lowest dose increasing number of foot slips” value in the data set on rats [3] (PO, 30, 100 and 300 mg/kg tested, dose dependent) was found to be 100 mg/kg. For the same molecule, the “rats that fell off the beam” value in the data set with rats [3] (PO, 2 hours post dose) is 25%. Besides, the “rats that fell off the beam” value with rats [3] (PO, 3 hours post dose) turned out to be 25%. Also, in the data set on rats [3] (PO, dose not stated, 1 hour post dose, water treated 0.6±0.4), the “number of foot slips” value amounted to 1.5±0.5. Besides, the “number of foot slips (peak effect)” value with rats [3] (PO, dose not stated, 2 hours post dose, vehicle 0.2±0.2, p<0.01) is 2.9±0.5.

As to `CN1CC[C@]23c4c5ccc(O)c4O[C@H]2[C@@H](O)C=C[C@H]3[C@H]1C5.O=S(=O)(O)O` [Morphine sulphate], the “adverse events in humans” value in data set [1] is “somnolence, sedation and addiction”. The “total counts (horizontal + vertical) in 30 min” value with rats [2] (10 mg/kg SC, 30 min post dose, vehicle 424±23, p<0.01) amounted to 28±6 counts. Further, the “total counts in 30 min” value with rats [2] (morphine 3 mg/kg, comparator in gabapentin study) stood at 138±26 counts. Further, in the data set with rats [3] (3 mg/kg SC, any time point (30 min, 1, 2, 3 h)), the “locomotion in the beam walking” value was “did not modify the locomotion”. In the data set with rats [3] (10 mg/kg SC, 30 min post dose, controls 4.1±0.7, significant), the “time to cross the beam” value is 12.6 ± 0.7 s. Further, the “number of foot slips” value in the data set on rats [3] (10 mg/kg SC, 30 minutes post dose, vehicle 0.1±0.1, not statistically different) was determined as 1.0±0.6; in the data set with rats [3] (10 mg/kg SC, 1 hr post dose, vehicle 0.1±0.1, not statistically different), 1.0±0.6. Also, in the data set with rats [3] (3 and 10 mg/kg SC), the “rats falling off the beam” value is “No rats fell off the beam”. Moreover, the “MED (minimal effective dose) in beam walking” value in the data set with rats [3] (SC) came to 10 mg/kg.

Take `c1ccc(C2(N3CCCCC3)CCCCC2)cc1` [PCP, phencyclidine]: the “adverse events in humans” value in data set [1] is “induce ataxia”. Further, the observed signs entry in the data set on rats [2] (10 mg/kg ip) is “signs of ataxia”. Moreover, the “vertical activity (rearing)” value in the data set on rats [2] (10 mg/kg, standard protocol for drug-induced decrease in movement, vehicle 186±17, p<0.01, data not shown) is on record as 30±9. In addition, the “total activity (vertical+horizontal) vs vehicle-treated group” value in the data set on rats [2] (setting [4]) is “did not change significantly”. Moreover, the vertical movement entry in the data set with rats [2] (setting [4]) is reported as “only the lower dose significantly increased the vertical movement”. Moreover, in the data set with rats [2] (1 and 10 mg/kg ip, 1 hr post injection, p<0.05), the horizontal activity result was “increased the horizontal activity in a dose dependent manner”. For the same molecule, the “number of foot slips, effect” value is given as “slight but significant increase” in the data set with rats [3] (1 mg/kg ip, 2 hours post dose, p<0.05) and “no effect” with rats [3] (lower dose (0.1 mg/kg ip)). Also, the “rodents that could not be placed on the beam (lack of paw coordination)” value in the data set with rats [3] (10 mg/kg ip, 30 min post dose) was 100%; in the data set on rats [3] (10 mg/kg ip, 1 hour post dose), 100%. For the same molecule, the “animals that did cross the beam” value with rats [3] (10 mg/kg ip, 2 hours post dose) amounted to 80%. Further, in the data set on rats [3] (10 mg/kg ip, 2 hours post dose, animals that crossed), the “number of foot slips” value was at least 5. In addition, in the data set with rats [3] (10 mg/kg ip, 2 hours post dose, p<0.01), the “time taken to cross the beam vs controls” value is “significantly different from controls”. Also, the recovery entry in the data set on rats [3] (10 mg/kg ip, 4 hrs post dose) was “almost all rats recovered”. The “time taken to cross the beam, effect across doses” value in the data set with rats [3] (0.1-1-10 mg/kg ip) is recorded as “increased the time taken to cross the beam at the higher dose only”.
